Laboratory results: patent US8092816B2, “Insecticidal compositions for control of general household pests” (priority 2004, dated 2012)
Where two headings read alike, the source gives them in different places.

How the values were obtained:
Assay type in all cases: in vivo
House Fly [1] = assay: Example 7: house fly knockdown and mortality, bifenthrin and imidacloprid
Excerpt: (§1) The following examples further illustrate the present invention, but, of course, should not be construed as in any way limiting its scope. The examples set forth certain biological data illustrating the efficacy of the compositions of the present invention in controlling general household pests. Each example embodies a separate test wherein the pests were randomly selected from a population at a random age. As a result, from example to example, the ages of the pests can be very different. This age difference potentially translates to different baselines for each example. Therefore, data should only be compared within the example and not from example to example due to the differences in age of the pests from example to example. Unless otherwise indicated, all parts, percentages, and the like are by weight. The spray chamber used in the examples was approximately 76 inches tall, 73 inches long and 31 inches deep with an adjustable shelf (approximately 22 inches deep) and a movable spray nozzle. The spray chambers were calibrated to deliver a volume of approximately 1 gallon of liquid per 1000 square feet of area at about 14 pounds per square inch of pressure. A DeVilbiss hand held sprayer (Atomizer model 152) manufactured by DeVilbiss located in Glendale Heights, Ill. was used in testing house flies and mosquitoes. The DeVilbiss was used to apply approximately 3-5 milliliters of product at about 10 pounds per square inch.
(§2) The compositions of the present invention were tested for house fly activity in the following manner:
Test compositions made up of TALSTARONE® MULTI-INSECTICIDE and a wettable powder of imidacloprid (MERIT) in distilled water were prepared that provided appropriate rates of application of combinations of bifenthrin and imidacloprid, as well as bifenthrin and imidacloprid alone.
(§3) A DeVilbiss hand held sprayer was used to deliver the treatment solution at the desired volume and pressure. The house flies to be treated were collected and placed in screened 16 oz paper cups. The hand held sprayer was activated and the test compound was applied to each paper cup interior. House fly knockdown and mortality were measured.

House Fly [2] = assay: Example 11: house fly knockdown and mortality, bifenthrin and thiamethoxam
Excerpt: as §1, §2
Test compositions made up of TALSTARONE® MULTI-INSECTICIDE and a water dispersible granular of thiamethoxam (CENTRIC) in distilled water were prepared that provided appropriate rates of application of combinations of bifenthrin and thiamethoxam, as well as bifenthrin and thiamethoxam alone.
as §3

German cockroach = assay: Example 13: German cockroach mortality, bifenthrin and clothianidin
Excerpt: as §1
The compositions of the present invention were tested for German cockroach activity in the following manner:
(§4) Test compositions made up of TALSTARONE® MULTI-INSECTICIDE and a 16% a.i. water dispersible granular of clothianidin in distilled water were prepared that provided appropriate rates of application of combinations of bifenthrin and clothianidin, as well as bifenthrin and clothianidin alone.
The spray chamber was then calibrated to deliver the treatment solution at the desired volume and pressure over the desired area on the chamber shelf. Spray chamber shelf height was adjusted to approximately 18 inches from the spray tip. The shelf was then covered with aluminum foil and the center of the shelf from front-to-back and end-to-end was determined. A desired number of 4.0″ sieve circles were marked on the aluminum foil with a permanent marker. The inside of a desired number of PVC rings were coated with a petroleum jelly/mineral oil mixture (1:2 ratio). The PVC rings were place on the sieve circles. 10 male German cockroaches were placed inside each PVC ring. The sprayer was activated and the test compound was applied to each PVC ring interior. German cockroach mortality was measured.

House Flies = assay: Example 17: house fly knockdown and mortality, bifenthrin and clothianidin
Excerpt: as §1, §2, §4, §3

Yellow Fever Mosquito = test system: Yellow Fever Mosquito
Excerpt: as §1
The compositions of the present invention were tested for Yellow Fever Mosquito activity in the following manner:
as §4
as §3, with “Yellow Fever Mosquitoes” for “house flies”, “Yellow Fever Mosquito” for “House fly”

[3] = rate of appln. 10 PPM (0.001% by weight)
[4] = rate of appln. 50 PPM (0.005% by weight)

Cc1c(COC(=O)[C@@H]2[C@H](/C=C(\Cl)C(F)(F)F)C2(C)C)cccc1-c1ccccc1 (racemic) [A, 2-methylbiphenyl-3-ylmethyl (Z)-(1RS)-cis-3-(2-chloro-3,3,3-trifluoroprop-1-enyl)-2,2-dimethylcyclopropanecarboxylate]
Knockdown Rate @ 15 minute (House Fly [1]; 10 PPM, 0.001% by weight): 0% | Knockdown Rate @ 30 minute (House Fly [1]; 10 PPM, 0.001% by weight): 0% | Knockdown Rate @ 45 minutes (House Fly [1]; 10 PPM, 0.001% by weight): 17% | Knockdown Rate @ 60 minutes (House Fly [1]; 10 PPM, 0.001% by weight): 40% | Knockdown Rate @ 120 minutes (House Fly [1]; 10 PPM, 0.001% by weight): 63% | Knockdown Rate @ 4 hours (House Fly [1]; 10 PPM, 0.001% by weight): 50% | Mortality Rate @ 1 day (House Fly [1]; 10 PPM, 0.001% by weight): 30% | Knockdown Rate @ 15 minute (House Fly [1]; 50 PPM, 0.005% by weight): 0% | Knockdown Rate @ 30 minute (House Fly [1]; 50 PPM, 0.005% by weight): 78% | Knockdown Rate @ 45 minutes (House Fly [1]; 50 PPM, 0.005% by weight): 97% | Knockdown Rate @ 60 minutes (House Fly [1]; 50 PPM, 0.005% by weight): 97% | Knockdown Rate @ 120 minutes (House Fly [1]; 50 PPM, 0.005% by weight): 97% | Knockdown Rate @ 4 hours (House Fly [1]; 50 PPM, 0.005% by weight): 97% | Mortality Rate @ 1 day (House Fly [1]; 50 PPM, 0.005% by weight): 97% | Knockdown Rate @ 15 minute (House Fly [2]; A 10 PPM, 0.001% by weight): 0% | Knockdown Rate @ 30 minute (House Fly [2]; A 10 PPM, 0.001% by weight): 0% | Knockdown Rate @ 45 minutes (House Fly [2]; A 10 PPM, 0.001% by weight): 6% | Knockdown Rate @ 60 minutes (House Fly [2]; A 10 PPM, 0.001% by weight): 19% | Knockdown Rate @ 120 minutes (House Fly [2]; A 10 PPM, 0.001% by weight): 19% | Knockdown Rate @ 4 hours (House Fly [2]; A 10 PPM, 0.001% by weight): 48% | Mortality Rate @ 1 day (House Fly [2]; A 10 PPM, 0.001% by weight): 3% | Knockdown Rate @ 15 minute (House Fly [2]; A 50 PPM, 0.005% by weight): 0% | Knockdown Rate @ 30 minute (House Fly [2]; A 50 PPM, 0.005% by weight): 19% | Knockdown Rate @ 45 minutes (House Fly [2]; A 50 PPM, 0.005% by weight): 47% | Knockdown Rate @ 60 minutes (House Fly [2]; A 50 PPM, 0.005% by weight): 59% | Knockdown Rate @ 120 minutes (House Fly [2]; A 50 PPM, 0.005% by weight): 63% | Knockdown Rate @ 4 hours (House Fly [2]; A 50 PPM, 0.005% by weight): 100% | Mortality Rate @ 1 day (House Fly [2]; A 50 PPM, 0.005% by weight): 63% | Mortality Rate @ 60 minutes (German cockroach; [3]): 8% | Mortality Rate @ 120 minutes (German cockroach; [3]): 33% | Mortality Rate @ 1 day (German cockroach; [3]): 35% | Mortality Rate @ 2 days (German cockroach; [3]): 60% | Mortality Rate @ 4 days (German cockroach; [3]): 100% | Mortality Rate @ 60 minutes (German cockroach; [4]): 15% | Mortality Rate @ 120 minutes (German cockroach; [4]): 48% | Mortality Rate @ 1 day (German cockroach; [4]): 58% | Mortality Rate @ 2 days (German cockroach; [4]): 100% | Mortality Rate @ 4 days (German cockroach; [4]): 100% | Knockdown Rate @ 15 minute (House Flies; [3]): 0% | Knockdown Rate @ 30 minute (House Flies; [3]): 0% | Knockdown Rate @ 45 minutes (House Flies; [3]): 0% | Knockdown Rate @ 60 minutes (House Flies; [3]): 0% | Knockdown Rate @ 120 minutes (House Flies; [3]): 3% | Knockdown Rate @ 180 minutes (House Flies; [3]): 3% | Knockdown Rate @ 4 hours (House Flies; [3]): 3% | Mortality Rate @ 1 day (House Flies; [3]): 3% | Knockdown Rate @ 15 minute (House Flies; [4]): 3% | Knockdown Rate @ 30 minute (House Flies; [4]): 55% | Knockdown Rate @ 45 minutes (House Flies; [4]): 66% | Knockdown Rate @ 60 minutes (House Flies; [4]): 68% | Knockdown Rate @ 120 minutes (House Flies; [4]): 74% | Knockdown Rate @ 180 minutes (House Flies; [4]): 74% | Knockdown Rate @ 4 hours (House Flies; [4]): 76% | Mortality Rate @ 1 day (House Flies; [4]): 79% | Knockdown Rate @ 15 minute (Yellow Fever Mosquito; [3]): 27% | Knockdown Rate @ 30 minute (Yellow Fever Mosquito; [3]): 97% | Mortality Rate @ 45 minutes (Yellow Fever Mosquito; [3]): 100% | Mortality Rate @ 60 minutes (Yellow Fever Mosquito; [3]): 100% | Mortality Rate @ 120 minutes (Yellow Fever Mosquito; [3]): 100% | Mortality Rate @ 180 minute (Yellow Fever Mosquito; [3]): 100% | Mortality Rate @ 4 hours (Yellow Fever Mosquito; [3]): 100% | Mortality Rate @ 1 day (Yellow Fever Mosquito; [3]): 100% | Knockdown Rate @ 15 minute (Yellow Fever Mosquito; [4]): 90% | Knockdown Rate @ 30 minute (Yellow Fever Mosquito; [4]): 100% | Mortality Rate @ 45 minutes (Yellow Fever Mosquito; [4]): 100% | Mortality Rate @ 60 minutes (Yellow Fever Mosquito; [4]): 100% | Mortality Rate @ 120 minutes (Yellow Fever Mosquito; [4]): 100% | Mortality Rate @ 180 minute (Yellow Fever Mosquito; [4]): 100% | Mortality Rate @ 4 hours (Yellow Fever Mosquito; [4]): 100% | Mortality Rate @ 1 day (Yellow Fever Mosquito; [4]): 100%
